This note sets out measurements from patent EP0811621A2, “Carbamoyl substituted oxazoles as thromboxane receptor antagonists” (ELI LILLY AND COMPANY, priority 1996, dated 1997).

Structures are written as SMILES.

In test [1] the test system is TXA2/PGH2 receptor-induced human platelet aggregation. Briefly: Platelet Aggregation Studies (U46619-induced aggregation in platelet-rich plasma). The class given is cell-based. Conditions: read-out: IC50, concentration of test compound required to inhibit U46619-induced platelet aggregation by 50%, U46619 (1 micromolar), 1 min preincubation at 37 °C. As to the method: (§1) Measurement of Thromboxane Receptor Antagonism:
(§2) • 1. Receptor Binding Assay. Membranes from outdated human platelets were prepared as previously described (Mais, D. E., et al., Eur. J. Pharmacol. (1992), 227, 267-274). Incubations (220 µL) containing 10 µg of platelet membranes were performed in siliconized glass tubes (12 x 75 mm) at 30 °C for 30 min. The incubation media consisted of 10 mM Hepes, 2 mM CHAPS, 10 µM Indomethacin (pH = 7.4), ∼0.05 nM (∼25000 cpm) of [^125I]IBOP per tube, and varying concentrations of competing ligands ranging from 10^-10 to 10^-5 M. The reaction was terminated by addition of 4 mL of ice cold buffer (25 mM Tris) at pH 7.4, followed by rapid filtration through Whatman GF/C glass filters pre-soaked in 0.3% polyethyleneamine (Whatman, Inc., Clifton, NJ) using a Brandel M-24 cell harvester (Gaithersburg, MD). Non-specific binding was defined as that amount of radioactivity bound in the presence of a large molar excess (10 µM) of SQ29548, a potent TXA2/PGH2 receptor antagonist. The binding in this assay is defined in terms of the dissociation constant Kd. […] Platelet Aggregation Studies. The ability of a test compound to antagonize TXA2/PGH2 receptor-induced human platelet aggregation was studied in the following manner. Blood was collected from volunteers who denied taking any medication known to influence platelet aggregation within the previous 10 days. […] Platelet-rich plasma was prepared by centrifugation at 100 x g for 12 min, and platelet-poor plasma was prepared by centrifugation at 12,000 x g for 2 min. Receptor activation and subsequent platelet aggregation was induced by the addition of the stable analog of TXA2/PGH2, U46619 (1 micromolar). Aggregation was monitored in a Biodata PAP4 platelet aggregation profiler for 3 min after the addition of U46619. Test compound or vehicle was preincubated with platelet-rich plasma for 1 min at 37 °C prior to the induction of aggregation with U46619.

The next test deals with T1, thromboxane synthase (Homo sapiens, UniProt P24557).
T1 construct: from tissue; host or cells: whole human blood
T1 sequence (P24557 1-533): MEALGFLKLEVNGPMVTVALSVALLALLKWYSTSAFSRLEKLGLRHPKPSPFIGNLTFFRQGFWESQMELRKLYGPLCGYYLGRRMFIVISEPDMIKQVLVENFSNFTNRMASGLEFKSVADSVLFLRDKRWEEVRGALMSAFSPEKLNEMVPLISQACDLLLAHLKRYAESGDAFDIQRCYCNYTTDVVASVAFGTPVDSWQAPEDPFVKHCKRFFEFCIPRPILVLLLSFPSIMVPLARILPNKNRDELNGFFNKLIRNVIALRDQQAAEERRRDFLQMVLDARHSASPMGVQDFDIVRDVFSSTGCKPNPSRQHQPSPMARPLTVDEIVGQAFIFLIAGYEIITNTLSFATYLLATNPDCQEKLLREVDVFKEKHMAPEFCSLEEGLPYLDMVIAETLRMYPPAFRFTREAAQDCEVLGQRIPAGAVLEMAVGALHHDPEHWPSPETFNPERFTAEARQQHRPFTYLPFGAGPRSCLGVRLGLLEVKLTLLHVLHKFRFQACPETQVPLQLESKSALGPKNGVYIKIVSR
Briefly: Thromboxane synthase inhibition in vitro (whole human blood, serum TXB2 by radioimmunoassay). The class given is cell-based. Conditions: 30 min at 37 °C. As to the method: Measurement of Thromboxane Synthase Inhibition and Prostacyclin Formation:
(§3) • 1. In vitro Experiments. The ability of a test compound to inhibit thromboxane synthase, as well as to change the amount of prostacyclin formed, were measured using published methods. […] Serum TXB2 and 6-keto-PGF1a, the stable metabolites of TXA2 and prostacyclin (PGI2), respectively, were measured by radioimmunoassay as described (Jakubowski, J.A., et al., Arteriosclerosis, (1987), 7, 599-604). The ability of a test compound to inhibit thromboxane synthase is expressed in the form of its IC50. […] Sprague Dawley rats (300 g males) were dosed by oral gavage with either vehicle (5% acacia) or 1-10 mg/kg test compound. Blood samples were collected 1 h after dosing. Animals were anesthetized (sodium pentobarbitol, 87 mg/kg i.p.) 15 min before sample collection. Blood samples were obtained by cardiac puncture via a butterfly catheter and the first mL of blood was discarded. Blood samples were divided into duplicates and incubated at 37 °C for 1 h in 13x100 mm glass tubes. Serum was separated by centrifugation at 2000 x g for 15 min at 25 °C, transferred to polypropylene tubes, and stored at -20 °C for subsequent assay using the methods referenced above.

The target in the next test is T2, TXA2/PGH2 receptor (Homo sapiens, UniProt P21731).
T2 construct: Membranes from outdated human platelets were prepared as previously described; from tissue; host or cells: human platelets (membranes)
T2 sequence (P21731 1-343): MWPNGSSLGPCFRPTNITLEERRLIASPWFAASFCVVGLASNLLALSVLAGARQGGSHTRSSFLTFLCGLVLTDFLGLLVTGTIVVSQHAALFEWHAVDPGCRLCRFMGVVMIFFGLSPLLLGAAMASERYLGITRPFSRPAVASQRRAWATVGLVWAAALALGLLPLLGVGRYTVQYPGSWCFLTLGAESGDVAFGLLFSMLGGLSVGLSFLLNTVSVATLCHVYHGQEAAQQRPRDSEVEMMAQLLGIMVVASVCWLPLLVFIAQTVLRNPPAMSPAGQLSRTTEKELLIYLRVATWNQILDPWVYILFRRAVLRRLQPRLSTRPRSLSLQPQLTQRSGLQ
Briefly: Receptor Binding Assay ([125I]IBOP, platelet membranes). Conditions: 30 °C for 30 min. As to the method:
as §1, §2

The next test relates to pithed rats. The experiment in a line: Absence of Agonist Activity (pressor response after i.v. administration). The class given is in vivo.
The subject of a further test is TXA2 formation. The experiment in a line: Ex vivo inhibition of TXA2 formation following oral administration. Conditions: Rattus norvegicus, 1 h, Sprague Dawley rats, oral gavage, one hour after dosing. It counts as in vivo. Here is the method: as §3

In the case of `O=C(O)CCCC/C=C(\c1ccc(-c2nc(C(=O)N[C@@H]3C[C@H]3c3ccccc3)co2)cc1)c1cccnc1` (single isomer, unassigned) [Example 19, (+)-(E)-7-[4-[4-[[(2-(trans)Phenylcyclopropyl)amino]carbonyl]-2-oxazolyl]phenyl]-7-(3-pyridyl)hept-6-enoic Acid], the IC50 in test [1] stood at 5 µM. Regarding `O=C(O)CCCC/C=C(\c1ccc(C2=N[C@H](C(=O)NCCCCC3CCCCC3)CO2)cc1)c1cccnc1` [Example 1, (4S)-(E)-7-[4-[4-[[(4-Cyclohexylbutyl)amino]carbonyl]-4,5-dihydro-2-oxazolyl]phenyl]-7-(3-pyridyl)hept-6-enoic Acid], the IC50 on thromboxane synthase amounted to 0.0821 µM. Broadly, the Kd is the concentration at which binding is half-saturated. A lower Kd goes with a tighter complex. What is called inhibition is the share of the control response that was lost under treatment. Low readings indicate a weak effect, high ones a strong effect. For `O=C(O)CCCC/C=C(\c1ccc(-c2nc(C(=O)NCCCCC3CCCCC3)co2)cc1)c1cccnc1` [Example 2, (E)-7-[4-[4-[[(4-Cyclohexylbutyl)amino]carbonyl]-2-oxazolyl]phenyl]-7-(3-pyridyl)hept-6-enoic Acid], the IC50 came out at 0.4 µM in test [1] and 0.055 µM at thromboxane synthase. The Kd on TXA2/PGH2 receptor was 0.0099 µM. Further, the “pressor response (TXA2 agonist activity)” value in the test on pithed rats (pithed rats, i.v., doses up to 10 mg/kg) is listed as “absence of a pressor response”. This compound also returned an inhibition at 3 mg/kg in the test on TXA2 formation above 95%.

At thromboxane synthase, `O=C(O)CCCC/C=C(/c1ccc(C2=N[C@H](C(=O)NCCCCC3CCCCC3)CO2)cc1)c1cccnc1` [Example 3, (4S)-(Z)-7-[4-[4-[[(4-Cyclohexylbutyl)amino]carbonyl]-4,5-dihydro-2-oxazolyl]phenyl]-7-(3-pyridyl)hept-6-enoic Acid] displayed an IC50 above 10 µM. Consider `O=C(O)CCCC/C=C(/c1ccc(-c2nc(C(=O)NCCCCC3CCCCC3)co2)cc1)c1cccnc1` [Example 4, (Z)-7-[4-[4-[[(4-Cyclohexylbutyl)amino]carbonyl]-2-oxazolyl]phenyl]-7-(3-pyridyl)hept-6-enoic Acid], for which the IC50 on thromboxane synthase was above 10 µM. As to `CC(OCCCNC(=O)c1coc(-c2ccc(/C(=C\CCCCC(=O)O)c3cccnc3)cc2)n1)C1CCCCC1` (centres unmarked) [Example 26, (E)-7-[4-[4-[[[3-(1-Cyclohexylethoxy)propyl]amino]carbonyl)-2-oxazolyl]phenyl]-7-(3-pyridyl)hept-6-enoic Acid], the IC50 in test [1] was 5 µM; against thromboxane synthase, 0.0115 µM. This compound had a dissociation constant (Kd) at TXA2/PGH2 receptor of 0.0582 µM. Take `O=C(O)CCCC/C=C(\c1ccc(-c2nc(C(=O)NCCCN3CCOCC3)co2)cc1)c1cccnc1` [Example 27, (E)-7-[4-[4-[[(3-Morpholinopropyl)amino]carbonyl]-2-oxazolyl]phenyl]-7-(3-pyridyl)hept-6-enoic Acid]: at TXA2/PGH2 receptor, the dissociation constant Kd was above 10 µM. For `O=C(O)CCCC/C=C(\c1ccc(-c2nc(C(=O)NCCCCOc3ccccc3)co2)cc1)c1cccnc1` [Example 30, (E)-7-[4-[4-[[(4-Phenoxybutyl)amino]carbonyl]-2-oxazolyl]phenyl]-7-(3-pyridyl)hept-6-enoic Acid], the IC50 was 0.5 µM in test [1] and 0.0489 µM on thromboxane synthase. The equilibrium dissociation constant (Kd) on TXA2/PGH2 receptor was found to be 0.0522 µM. With `O=C(O)CCC/C=C\C[C@H]1[C@@H]2CC[C@@H](C2)[C@@H]1NS(=O)(=O)c1ccccc1` [Example S-145, reference compound], the mean arterial pressure result in the test on pithed rats (one minute after dosing at 0.1 mg/kg i.v.) is listed as “transient, but significant, increase”.
